Measurements reported in patent publication US20210301038A1, “POLYSIALIC ACID AND DERIVATIVES THEREOF, PHARMACEUTICAL COMPOSITION AND METHOD OF PRODUCING POLYSIALIC ACID” (Medizinische Hochschule Hannover (MHH), priority 2018, published 2021).
Counter-ions that a name gives are not always drawn.

What was measured:
[1] = tested on: NMDAR-EPSCs (GluN1/GluN2B receptors); experiment: Evoked NMDAR-EPSCs, whole-cell patch-clamp of layer V pyramidal neurons in sham- or endoNF-treated mPFC slices; assay type: cell-based, mouse; details: 0.1 μM, in the presence of 5-HT4 antagonist RS 39604 (10 μM)
From the text: Each mouse was quickly sacrificed by cervical dislocation. After decapitation, the brain was rapidly removed from the skull and placed in ice-cold artificial cerebrospinal fluid (aCSF) equilibrated with 95% O2/5% CO2, which was composed of the following (in mM): 250 sucrose, 24 NaHCO3, 25 glucose, 2.5 KCl, 1.25 NaH2PO4, 2 CaCl2, and 1.5 MgCl2 (osmolarity 345-350 mOsm/kg, pH 7.4). Using a VT1200S vibratome (Leica, Nussloch, Germany), coronal slices containing the prelimbic and infralimbic cortices (1.9-1.3 mm anterior to bregma) were cut 350 μm or 400 μm thick, for patch clamp and extracellular recordings, respectively, in the same sucrose-containing aCSF. Then, the slices were transferred to a slice holding chamber filled with recording aCSF (osmolarity 300-305 mOsm/kg, pH 7.4) that contained 120 mM NaCl instead of sucrose (Eckhardt et al., 2000) and was continuously gassed with 95% O2/5% CO2.
(§1) For endoNF treatment in C57BL/6J mice, slices were first allowed to recover for 20 min at room temperature (22-24° C.) in recording aCSF and were then placed in a 24-well plate to be incubated in 2 ml of aCSF without (sham) or with addition of endoNF (10 μg/ml) at 35° C. for 2 hours. The 24-well plate was installed in a water bath (ED, Julabo, Seelbach, Germany). For field excitatory postsynaptic potential (fEPSP) recordings in knockout and transgenic mice, mPFC slices were incubated in recording aCSF for >2 hours at room temperature before recordings. For patch-clamp recordings in knockout mice, slices were incubated first at 35° C. for 20 min and then at room temperature for >30 min before recordings started. The aCSF was continuously gassed with 95% O2/5% CO2 during all incubation steps and recordings.
For whole-cell patch-clamp recordings, layer V pyramidal neurons were visualized using a SliceScope Pro 6000 equipped with a 40× water-immersion objective and infrared differential interference contrast microscopy (Scientifica, Uckfield, UK). Pyramidal cells were identified by their triangular soma and long apical dendrites, and synaptically evoked excitatory postsynaptic currents (EPSCs) were recorded using patch pipettes (3-5 MQ) fabricated using borosilicate glass capillaries (wall thickness 0.315, length 100, outer diameter 1.5 mm, Hilgenberg) and a DMZ-Zeitz puller (Zeitz Instruments GmbH, Martinsried, Germany). The intracellular pipette solution contained the following (in mM): 140.7 Cs-methane-sulfonate, 5 NaCl, 1 MgCl2, 0.2 EGTA, 10 HEPES, 3 ATP-Mg, 0.3 Na-GTP, and 3.1 QX-314 (osmolarity 295 mOsm/kg, adjusted to pH 7.2 with CsOH). EPSCs were evoked by electrical pulses (0.2 ms) at 0.033 Hz via a glass pipette placed in layer II/III of the mPFC (identically to fEPSPs). Mixed EPSCs showing a fast AMPAR-mediated component and a slow NMDAR-mediated component were recorded at a −60 mV holding potential in whole-cell voltage-clamp mode in normal aCSF. The stimulation intensity was adjusted to evoke mixed EPSCs with amplitudes of approximately 300 pA. The slow NMDAR-mediated component of EPSCs was pharmacologically isolated at −60 mV in modified aCSF containing low Mg^2+ (0.1 mM) and high Ca^2+ (3.2 mM, for adjustment of divalent cation concentrations), the selective antagonist of α-amino-3-hydroxy-5-methyl-4-isoxazolepropionic acid (AMPA)/kainate receptors NBQX (10 μM), and the selective antagonist of γ-aminobutyric acid (GABA)B receptors CGP-55845 (2 μM) (Chen et al., 2003). The washout of Mg^2+ required at least 25 min. Recordings at a holding potential near the resting membrane potential allowed us to obtain stable NMDAR-EPSC recordings from pyramidal cells lasting for 1-1.5 hours. Series resistance (Rs, range 10-25 MΩ) was compensated (20-30%) and monitored continuously. Neurons in which Rs changed by more than 20% throughout the experiment were not included in the analysis. In voltage-clamp mode, membrane potential was not corrected for liquid junction potential. […]

[2] = tested on: layer II/III - layer V synapses in mPFC slices; experiment: TBS-induced LTP (fEPSP) in sham- and endoNF-treated mPFC slices from C57BL/6 mice; assay type: cell-based, mouse; details: endoNF-treated slices; Ro 25-6981 0.3 μM; DP12 1 μg/ml; DP5 1 or 10 μg/ml; sarcosine 0.75 mM; SSR 504734 3 μM
Description: as §1
(§2) Prefrontal slices (400 μm) were transferred to a submerged-type recording MC membrane chamber (volume 2 ml; Scientific Systems Design Inc., Mississauga, Ontario, Canada) perfused with oxygenated recording ACSF at a flow rate of 4 ml/min and maintained at room temperature (22-25° C.), unless stated otherwise in the “Results”-section given below. Field EPSPs were evoked and recorded using thin-walled glass electrodes (borosilicate glass, wall thickness 0.188, length 100, and outer diameter 1.5 mm, Hilgenberg, Malsfeld, Germany) filled with recording aCSF in 400 μm-thick mPFC slices. In order to stimulate electrically the input fibers of pyramidal cells, the stimulation electrode (0.3-0.5 MΩ) was inserted into layers II/III of the prelimbic cortex. The recording electrode (2-2.5 MΩ) was placed in the vicinity of dendrites and cell bodies of pyramidal neurons in layer V (Huang et al., 2004).
(§3) Before LTP induction, basal synaptic transmission was recorded in each slice and the relationship between stimulus intensity and fEPSP slope was measured. Basal fEPSPs were evoked at 0.05 Hz for at least 10 min. The supramaximal slope was determined by gradually increasing the stimulation intensity until a population spike in the fEPSP became first visible. The stimulation intensity was adjusted to elicit a basal fEPSP with a slope of approximately 50% of the supramaximal value.
(§4) LTP was induced by application of five trains of theta-burst stimulation (TBS) with an inter-theta-train interval of 20 s (Brennaman et al., 2011). Each train consisted of 8 bursts delivered at 5 Hz. Each burst consisted of four pulses delivered at 100 Hz. Duration of pulses was 0.2 ms. For calculation of the LTP level, the mean fEPSP slope was measured between 50-60 min after TBS delivery, and it was then normalized to mean baseline fEPSP slope during 0-10 min before TBS. Stimulus artifacts in representative fEPSP examples in figures were blanked to facilitate the perception of fEPSPs recorded in the mPFC. Recording and analysis of LTP in St8Sia4^−/− mice was performed in a blind manner.
The enzyme endosialidase NF (endoNF) (Stummeyer et al., 2005) and the short form of polysialic acid composed of 10 or twelve sialic acid residues (DP10 and DP12) were purified as described previously (Keys et al., 2014). Sialic acid (N-acetylneuraminic acid, DP1) and the pentamer of sialic acid sodium salt (DP5) were obtained from EY Laboratories (San Mateo, Calif., USA). DMB-labelled DP2 and DP12, and non-labelled avDP10-9OAc were synthesized in the laboratory of Rita Gerardy-Schahn (see sections Synthesis of DMB-DP2 and DMB-DP12 and Synthesis of avDP10-9OAc, respectively). […]

[3] = tested on: mPFC slices from St8sia4−/− mice; experiment: TBS-induced LTP in mPFC slices from ST8SIA4-deficient mice and wild-type littermates; assay type: cell-based, mouse; details: Ro 25-6981 0.3 μM, DP12 1 μg/ml, sarcosine 0.75 mM
Description: as §1, §2, §3, §4

[4] = tested on: C57BL/6J mice with intra-mPFC endoNF injection; experiment: Novel object recognition test before and after intra-mPFC endoNF injection; assay type: in vivo, mouse
Description: Guide cannulas were fabricated using stainless steel tubing with outer/inner diameter Ø 0.711/0.483 mm (Science Products, Germany). Dummy cannulas were made from entomological pins, size 2, Ø 0.41 mm (FST, Germany). Chronic implantation of cannulas into the mPFC in mice was performed as described previously for intrahippocampal injections (Kochlamazashvili et al., 2012; Senkov et al., 2015; Senkov et al., 2006).
Acute injection of endoNF in vivo was done under a short isoflurane anesthesia. For intra-mPFC injection, we used a digitally controlled infusion system (UltraMicroPump, UMP3, and Micro4 Controller, WPI, USA) fed with a 10 μl-Hamilton syringe and NanoFil 135 μm (35 GA) beveled needle. The thin (135 μm) part of the needle went into the mouse brain during injection, whereas its thick part (430 μm) fit perfectly in the guide cannula (inside 483 μm). Injections were performed as follows: 1) a mouse was anesthetized with 1-3% isoflurane as during implantation; 2) it was put into the stereotaxic frame; 3) the dummy cannula was gently removed from the left guide cannula; 4) a NanoFil injecting needle was carefully placed inside of the guide cannula and advanced further down until reaching the marker (made with a permanent pen at the needle shank (430 μm) to visualize the point when the needle should reach the surface of the brain coming out of the guide cannula (equal to the length of guide cannula); 5) once the marker was reached, a slow (10 μm increment) step dial was used to deepen the needle into the brain; 6) endoNF (2 μg/μl) or vehicle was injected with the following settings: 250 nl per site as deep as 1.5 and 2.25 mm from the brain surface (total injection volume per hemisphere 500 nl, injection rate of 3 nl/s); 7) after injection was complete (˜5 min), the needle was left in the injection site for another 5 min and then gently removed; 8) the dummy cannula was then put back to its place; 9) the same procedure was performed for the right hemisphere. The whole injection process took approximately 20-25 min under isoflurane anesthesia, and the mice recovered rather quickly, starting to move in approximately 2-3 min after being returned to their home cages. Complete recovery of a mouse after such short anesthesia usually occurs within 3-5 min. After injection, mice were returned to their animal facility. Behavior experiments started on the day after injection at approximately the same time, so that we could perform cognitive tests 24 hours after injection.
A white open field arena (50×50×30 cm) was used in the novel object recognition task. All behavior was video recorded and analyzed automatically by software (ANY-maze, version 4.99, Stoelting Co., Wood Dale, Ill.). […]

| Compound | inhibition of NMDAR-EPSC amplitude ([1]; endoNF-treated slices) | inhibition of NMDAR-EPSC amplitude ([1]; sham-treated slices) | LTP level 50-60 min after TBS [2] | LTP magnitude ([3]; St8sia4+/+ mice) | LTP level 50-60 min after TBS ([3]; St8sia4−/− mice) | novel object recognition after intra-mPFC endoNF injection ([4]; 30 min before encoding, sarcosine 600 mg/kg i.p. (d2), DP12 (d5) and DP1 (d6) 1 mg/kg intranasally) | novel object recognition before endoNF injection ([4]; d-1, 600 mg/kg i.p. 30 min before the encoding phase) |
| --- | --- | --- | --- | --- | --- | --- | --- |
| [H]/N=C(/NCCCCC)N/N=C/c1c[nH]c2ccc(OC)cc12 [tegaserod, tegaserod maleate] | ~30% | ~50% | – | – | – | – | – |
| CNCC(=O)O [sarcosine, N-methylglycine] | – | – | fully restored to sham levels | no effect | full restoration of LTP levels | fully alleviated | normal object recognition |
| O=C(N[C@@H](c1ccccc1)[C@@H]1CCCCN1)c1cccc(C(F)(F)F)c1Cl [SSR 504734, 2-chloro-N—[(S)-phenyl[(2S)-piperidin-2-yl]methyl]-3-trifluoromethyl benzamide] | – | – | rescued LTP | – | – | – | – |
